This note sets out measurements from US9579319B2 (Redx Pharma PLC, priority 2013, dated 2017).

Converted amounts (≈) assume the structure as drawn. Where two headings read alike, the source gives them in different places.

Data set [1] can be described thus: Thermodynamic solubility with filtration. It counts as physicochemical. As to conditions: aqueous buffer, thermodynamic from solid, pH 7.4 phosphate buffer (0.1 M), room temperature, filtered. The method, then: Thermodynamic Solubility with Filtration
0.5 mg is weighed into a Mini Uniprep filter vial (Whatman, PVDF, 0.2 μm). 0.5 mL of pH 7.4 phosphate buffer (0.1 M) is dispensed and the vial is shaken at 600 rpm for 24 h at room temperature. At the end of this period, the solution is then filtered and an aliquot of the filtrate is used to create a tenfold dilution. Standards are prepared by serially diluting a 1250 μg/mL DMSO stock solution of the compound to 125 and 2.5 μg/mL, in Acetonitrile/Water (50:50, v/v). The concentration of the filtrate and tenfold dilution is measured by detection against the two calibration standards.

In data set [2] the test system is Hedgehog signalling pathway. As to the kind of experiment: Gli-reporter NIH3T3 luciferase assay (Hedgehog pathway inhibition). It counts as cell-based. The following applies: Gli-reporter NIH-3T3 cells, recombinant mouse sonic hedgehog, 24 hours, luminescence. Summed up: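 Mouse NIH3T3 cells with Gli-responsive luciferase reporter, pre-treated 1 h with compound (top final concentration 1 μM, 0.1% DMSO) in 0.5% calf serum medium. Then stimulated with recombinant mouse sonic hedgehog for 24 h at 37° C. Luminescence read-out (OneGLO), triplicates; IC50 reported.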

Setting [3] is: NIH3T3, read-out: Category (Hedgehog pathway inhibition activity, IC50).
The mark [4] stands for this setting: NIH3T3, read-out: Gli Luc nM (IC50).

As usually defined, the solubility is the concentration that dissolves in the medium under given conditions. A low value points to a poorly soluble substance. One may read the IC50 as the concentration at which inhibition is half-maximal.

On to `Cn1nccc1-c1nnc(N2CCC(NCc3cnccc3C(F)(F)F)CC2)c2ccccc12` [Example 156, 1-[4-(2-methylpyrazol-3-yl)phthalazin-1-yl]-N-[[4-(trifluoromethyl)-3-pyridyl]methyl]piperidin-4-amine], for which the solubility at 24 h in data set [1] stood at 321 µg/mL (≈ 687 µM). Moreover, the IC50 in data set [2] (NIH3T3, read-out: Gli luc IC50) was less than 10 nM.
In the same order, the values of `Cc1ccccc1CNC1CCN(c2nnc(-c3ccnn3C)c3ccccc23)CC1` [Example 170, 1-[4-(2-methylpyrazol-3-yl)phthalazin-1-yl]-N-(o-tolylmethyl)piperidin-4-amine] are 1190 µg/mL (≈ 2890 µM) and 10 to 200 nM.
In the same order, the values of `Cc1nc(CN(C)C2CCN(c3nnc(-c4ccnn4C)c(C)c3C)CC2)c(C(F)(F)F)o1` [Example 97, 1-[4,5-dimethyl-6-(2-methylpyrazol-3-yl)pyridazin-3-yl]-N-methyl-N-[[2-methyl-5-(trifluoromethyl)oxazol-4-yl]methyl]piperidin-4-amine] are 1010 µg/mL (≈ 2180 µM) and 10 to 200 nM.
In the same order, the values of `Cc1c(-c2ccnn2C)nnc(N2CCC(NC(=O)NC(C)(C)C)CC2)c1C` [Example 116, 1-tert-butyl-3-[1-[4,5-dimethyl-6-(2-methylpyrazol-3-yl)pyridazin-3-yl]-4-piperidyl]urea] are 1260 µg/mL (≈ 3270 µM) and 10 to 200 nM.
As to `Cn1nccc1-c1nnc(N2CCC(NS(=O)(=O)c3ccc(F)cc3C(F)(F)F)CC2)c2ccccc12` [Example 50, 4-fluoro-N-[1-[4-(2-methylpyrazol-3-yl)phthalazin-1-yl]-4-piperidyl]-2-(trifluoromethyl)benzenesulfonamide], the values for the IC50 in data set [2] (setting [3]) and in data set [2] (setting [4]) were less than 10 nM and 1.79 nM, respectively.
As for `Cn1nccc1-c1nnc(N2CCC(NCc3cccc(C(F)(F)F)c3)CC2)c2ccccc12` [Example 39, 1-[4-(2-methylpyrazol-3-yl)phthalazin-1-yl]-N-[[3-(trifluoromethyl)phenyl]methyl]piperidin-4-amine], in data set [2] (setting [3]), the IC50 was 10 to 200 nM.
In the case of `CN(C(=O)Nc1ccc(F)cc1F)C1CCN(c2nnc(-c3ccnn3C)c3ccncc23)CC1` [Example 111, 3-(2,4-difluorophenyl)-1-methyl-1-[1-[1-(2-methylpyrazol-3-yl)pyrido[3,4-d]pyridazin-4-yl]-4-piperidyl]urea], the IC50 in data set [2] (NIH3T3, read-out: Gli luc IC50) lay in the range of 10 to 200 nM.
As to `COc1ccc(CN(C)C2CCN(c3nnc(-c4ccnn4C)c4ccccc34)CC2)cc1` [Example 63, (4-methoxyphenyl)methyl-methyl-[1-[4-(2-methylpyrazol-3-yl)phthalazin-1-yl]-4-piperidyl]ammonium], the IC50 in data set [2] (setting [3]) lay in the range of 200 to 2000 nM.
For the compound `CSc1ccccc1CNC1CCN(c2nnc(-c3ccnn3C)c3ccccc23)CC1` [Example 17, 1-[4-(2-methylpyrazol-3-yl)phthalazin-1-yl]-N-[(2-methylsulfanylphenyl)methyl]piperidin-4-amine], in data set [2] (setting [3]), the IC50 was 10 to 200 nM.
Take `CN(C(=O)Nc1ccc(F)cc1C(F)(F)F)C1CCN(c2nnc(-c3ccnn3C)c3cccnc23)CC1` [Example 137, 3-[4-fluoro-2-(trifluoromethyl)phenyl]-1-methyl-1-[1-[5-(2-methylpyrazol-3-yl)pyrido[2,3-d]pyridazin-8-yl]-4-piperidyl]urea]: the IC50 in data set [2] (NIH3T3, read-out: Gli luc IC50) was less than 10 nM.
Same read-out and setting: with `CN(C(=O)Nc1ccc(F)cc1F)C1CCN(c2nnc(-c3ccnn3C)c3cccnc23)CC1` [Example 136, 3-(2,4-difluorophenyl)-1-methyl-1-[1-[5-(2-methylpyrazol-3-yl)pyrido[2,3-d]pyridazin-8-yl]-4-piperidyl]urea] the figure was 10 to 200 nM; with `CN(C(=O)Nc1ccc(F)cc1F)C1CCN(c2nnc(-c3ccnn3C)c3ncccc23)CC1` [Example 101, 3-(2,4-difluorophenyl)-1-methyl-1-[1-[8-(2-methylpyrazol-3-yl)pyrido[2,3-d]pyridazin-5-yl]-4-piperidyl]urea], greater than 200 nM; with `CN(Cc1cnccc1C(F)(F)F)C1CCN(c2nnc(-c3ccnn3C)c3ccccc23)CC1` [Example 154, N-methyl-1-[4-(2-methylpyrazol-3-yl)phthalazin-1-yl]-N-[[4-(trifluoromethyl)-3-pyridyl]methyl]piperidin-4-amine], less than 10 nM.
Consider `COc1ccccc1NC(=O)NC1CCN(c2nnc(-c3ccnn3C)c3ccccc23)CC1` [Example 15, 1-(2-methoxyphenyl)-3-[1-[4-(2-methylpyrazol-3-yl)phthalazin-1-yl]-4-piperidyl]urea], for which, in data set [2] (setting [3]), the IC50 was less than 10 nM.
Same read-out and setting: the result for `Cn1nccc1-c1nnc(N2CCC(N(Cc3ccc(F)cc3C(F)(F)F)C(=O)C(F)(F)F)CC2)c2ccccc12` [Example 56, 2,2,2-trifluoro-N-[[4-fluoro-2-(trifluoromethyl)phenyl]methyl]-N-[1-[4-(2-methylpyrazol-3-yl)phthalazin-1-yl]-4-piperidyl]acetamide] reads 10 to 200 nM.
Turning to `Cn1nccc1-c1nnc(N2CCC(NC(=O)Nc3ccc(F)cc3F)CC2)c2c1CCC2` [Example 138, 1-(2,4-difluorophenyl)-3-[1-[1-(2-methylpyrazol-3-yl)-6,7-dihydro-5H-cyclopenta[d]pyridazin-4-yl]-4-piperidyl]urea], the IC50 in data set [2] (NIH3T3, read-out: Gli luc IC50) was in the range of 10 to 200 nM.
For the compound `Cc1ccccc1CN(C)C1CCN(c2nnc(-c3ccnn3C)c3ccccc23)CC1` [Example 30, N-methyl-1-[4-(2-methylpyrazol-3-yl)phthalazin-1-yl]-N-(o-tolylmethyl)piperidin-4-amine], the IC50 in data set [2] (setting [3]) is less than 10 nM.
As for `Fc1ccc(CNC2CCN(c3nnc(N4CCOCC4)c4ccccc34)CC2)c(C(F)(F)F)c1` [Example 145, N-[[4-fluoro-2-(trifluoromethyl)phenyl]methyl]-1-(4-morpholinophthalazin-1-yl)piperidin-4-amine], the IC50 in data set [2] (NIH3T3, read-out: Gli luc IC50) was greater than 200 nM.
Consider `CN(Cc1ccc(F)cc1C(F)(F)F)C1CCN(c2ccc(-c3ccnn3C)nn2)CC1` [Example 42, N-[[4-fluoro-2-(trifluoromethyl)phenyl]methyl]-N-methyl-1-[6-(2-methylpyrazol-3-yl)pyridazin-3-yl]piperidin-4-amine], for which the IC50 in data set [2] (setting [3]) is less than 10 nM; in data set [2] (setting [4]), 0.04 nM.
For `Cn1nccc1-c1nnc(N2CCC(NCc3ccc(F)nc3F)CC2)c2ccccc12` [Example 76, N-[(2,6-difluoro-3-pyridyl)methyl]-1-[4-(2-methylpyrazol-3-yl)phthalazin-1-yl]piperidin-4-amine], in data set [2] (setting [3]), the IC50 fell in the range of 10 to 200 nM.
Same read-out and setting: the result for `Cc1c(-c2ccnn2C)nnc(N2CCC(N(C)Cc3ccc(F)cc3C(F)(F)F)CC2)c1C` [Example 41, 1-[4,5-dimethyl-6-(2-methylpyrazol-3-yl)pyridazin-3-yl]-N-[[4-fluoro-2-(trifluoromethyl)phenyl]methyl]-N-methyl-piperidin-4-amine] reads 10 to 200 nM.
In the case of `Cc1c(-c2ccnn2C)nnc(N2CCC(N(C)C(=O)Nc3cnncc3C(F)(F)F)CC2)c1C` [Example 107, 1-[1-[4,5-dimethyl-6-(2-methylpyrazol-3-yl)pyridazin-3-yl]-4-piperidyl]-1-methyl-3-[5-(trifluoromethyl)pyridazin-4-yl]urea], the IC50 in data set [2] (NIH3T3, read-out: Gli luc IC50) is greater than 200 nM.
Turning to “1-[4,5-dimethyl-6-(2-methylpyrazol-yl)pyridazin-3-yl]-N-methyl-N-[[2-(trifluoromethoxy)phenyl]methyl]piperidin-4-amine [Example 89]”, the IC50 in data set [2] (read-out: Gli luc IC50) was greater than 200 nM.
For the compound `Cn1nccc1-c1nnc(N2CCC(NS(=O)(=O)c3ccc(F)cc3C(F)(F)F)CC2)c2cnccc12` [Example 106, 4-fluoro-N-[1-[1-(2-methylpyrazol-3-yl)pyrido[3,4-d]pyridazin-4-yl]-4-piperidyl]-2-(trifluoromethyl)benzenesulfonamide], the half-inhibitory concentration (IC50) in data set [2] (NIH3T3, read-out: Gli luc IC50) lay within 10 to 200 nM.
Take `Cc1c(-c2ccnn2C)nnc(N2CCC(N(C)Cc3ncccc3C(F)(F)F)CC2)c1C` [Example 85, 1-[4,5-dimethyl-6-(2-methylpyrazol-3-yl)pyridazin-3-yl]-N-methyl-N-[[3-(trifluoromethyl)-2-pyridyl]methyl]piperidin-4-amine]: the IC50 in data set [2] (NIH3T3, read-out: Gli luc IC50) was in the range of 10 to 200 nM.
Same read-out and setting: the result for `O=C(Nc1ccc(F)cc1C(F)(F)F)NC1CCN(c2nnc(-c3ccncc3)c3ccncc23)CC1` [Example 99, 1-[4-fluoro-2-(trifluoromethyl)phenyl]-3-[1-[1-(4-pyridyl)pyrido[3,4-d]pyridazin-4-yl]-4-piperidyl]urea] reads less than 10 nM.
For the compound `COc1ccccc1CNC1CCN(c2nnc(-c3ccnn3C)c3ccccc23)CC1` [Example 69, N-[(2-methoxyphenyl)methyl]-1-[4-(2-methylpyrazol-3-yl)phthalazin-1-yl]piperidin-4-amine], the IC50 in data set [2] (setting [3]) was 200 to 2000 nM.
In the case of `Cn1nccc1-c1nnc(N2CCC(NCc3ccccc3[N+](=O)[O-])CC2)c2ccccc12` [Example 31, 1-[4-(2-methylpyrazol-3-yl)phthalazin-1-yl]-N-[(2-nitrophenyl)methyl]piperidin-4-amine], in data set [2] (setting [3]), the IC50 was in the range of 10 to 200 nM.
`Cc1c(-c2ccnn2C)nnc(N2CCC(N(C)C(=O)Nc3ccc(F)cc3F)CC2)c1C` [Example 127, 3-(2,4-difluorophenyl)-1-[1-[4,5-dimethyl-6-(2-methylpyrazol-3-yl)pyridazin-3-yl]-4-piperidyl]-1-methyl-urea]: the IC50 in data set [2] (NIH3T3, read-out: Gli luc IC50) was greater than 200 nM.
